Assay results from PubChem BioAssay (NCI).
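Following 48 hours of exposure in 96-well plates, responses at five concentrations were used to interpolate endpoints linearly. Abbreviation: GI50, concentration required for 50% inhibition of growth. TGI marks complete inhibition of growth.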

What was measured:
Assay in all cases: NCI-60 cell line screen, 48 h
MOLT-4 leukemia = system: MOLT-4 leukemia
HOP-92 NSCLC = system: HOP-92 NSCLC
KM12 colon = system: KM12 colon
MALME-3M melanoma = system: MALME-3M melanoma
TK-10 renal = system: TK-10 renal
SW-620 colon = system: SW-620 colon
CCRF-CEM leukemia = system: CCRF-CEM leukemia
DU-145 prostate = system: DU-145 prostate
SK-MEL-28 melanoma = system: SK-MEL-28 melanoma
SK-OV-3 ovarian = system: SK-OV-3 ovarian

Row | SMILES | GI50 (MOLT-4 leukemia) [µM] | TGI (MOLT-4 leukemia) [µM] | GI50 (HOP-92 NSCLC) [µM] | TGI (HOP-92 NSCLC) [µM] | GI50 (KM12 colon) [µM] | TGI (KM12 colon) [µM] | GI50 (MALME-3M melanoma) [µM] | TGI (MALME-3M melanoma) [µM] | GI50 (TK-10 renal) [µM] | TGI (TK-10 renal) [µM] | GI50 (SW-620 colon) [µM] | TGI (SW-620 colon) [µM] | GI50 (CCRF-CEM leukemia) [µM] | TGI (CCRF-CEM leukemia) [µM] | GI50 (DU-145 prostate) [µM] | TGI (DU-145 prostate) [µM] | GI50 (SK-MEL-28 melanoma) [µM] | TGI (SK-MEL-28 melanoma) [µM] | GI50 (SK-OV-3 ovarian) [µM] | TGI (SK-OV-3 ovarian) [µM]
1 | NC1CC(=O)c2c(-c3cccs3)sc(-c3cccs3)c21 (stereo not given) | 18.5 | > 100 | 16.6 | 66.2 | 25 | > 100 | 37.8 | > 100 | 16.3 | 40.3 | 9.11 | 58 | 3.89 | > 100 | 14.4 | 32.9 | 19.2 | 39.7 | > 100 | > 100
2 | Cc1ccc2ccccc2c1CSc1nc(N)nc2c1ncn2CC(C)C |  | 29.7 |  | > 100 |  | > 100 |  | > 62.2 |  | > 100 |  | > 100 |  | > 95.5 |  | > 100 |  | > 100 |  | > 100
3 | Cc1cc(N(CCC#N)S(=O)(=O)c2ccccc2)ccc1C=Nc1ccc(C(=O)O)cc1 |  | 13.8 |  | > 100 |  | 42.6 |  | 12 |  | 17.9 |  | 15 |  | > 26.5 |  | > 100 |  | 28.3 |  | 48.9
4 | CC(=O)OC1CC2(C)C(=CC1C1SCCS1)CCC1C2CCC2(C)C(OC(C)=O)CCC12 (stereo not given) |  | > 100 |  | > 100 |  | > 100 |  | > 100 |  | > 100 |  | > 100 |  | > 100 |  | > 100 |  | > 100 |  | > 100
5 | Cc1[nH]nc(C(F)(F)F)c1Cc1sc2c(c1C(=O)N1C[C@](C)(O)CO1)c(=O)n(C)c(=O)n2C(C)C | > 100 | > 100 | > 100 | > 100 | > 100 | > 100 | > 100 | > 100 | > 100 | > 100 | > 100 | > 100 | > 100 | > 100 | > 100 | > 100 | > 100 | > 100 | > 100 | > 100
6 | OC(c1cc(C(F)(F)F)nc2c(Cl)cc(Cl)cc12)C1CCCCN1 (stereo not given) |  | 22.9 |  | 21.9 |  | 19.3 |  | > 36.9 |  | > 32.8 |  | 19.2 |  | 4.08 |  | 20 |  | 29.5 |  | 25.2
7 | Cn1nc(C(F)(F)F)cc1-c1cc(Cl)c(OCc2ccc(Cl)cc2)c(-c2ccc(Cl)c(C(F)(F)F)c2)c1O | 1.01 | 2.39 | 0.554 | 2.1 | 1.38 | 5.07 | 1.06 | 2.57 | 1.66 | 5.56 | 1.38 | 5.38 | 0.821 | 19.6 | 1.76 | 6.87 | 1.14 | 3.53 | 1.43 | 4.31
8 | Clc1cnc(Nc2ccc(OCCN3CCCC3)cc2)nc1NCc1ccco1 | 1.86 | 8.4 | 1.14 | 6.6 | 0.643 | 10.1 | 2.1 | 5.79 | 2.28 | 11.8 | 2.26 | 13 | 2.54 | 9.5 | 3.43 | > 100 | 3.29 | 10.7 | 3.62 | 34.1
